According to ChEMBL document CHEMBL5120889, “Dolabrane-Type Diterpenoids with Immunosuppressive Activity from Koilodepas hainanense” (J Nat Prod, 2022):

Tests used:
[1] = Immunosuppressive activity in BALB/c mouse splenocytes assessed as reduction in ConA-induced mouse T-lymphocytes proliferation incubated for 8 hrs by beta scintillation counting based [3H]thymidine incorporation assay; type: functional; conditions: T-cell
B-cell line = assay: Immunosuppressive activity in BALB/c mouse splenocytes assessed as reduction in LPS-induced mouse B-lymphocytes proliferation incubated for 8 hrs by beta scintillation counting based [3H]thymidine incorporation assay; type: functional
[2] = Selectivity index, ratio of CC50 for cytotoxicity in BALB/c mouse splenocytes to IC50 for immunosuppressive activity in BALB/c mouse splenocytes assessed as reduction in ConA-induced mouse T-lymphocytes proliferation; type: toxicity, cell-based; conditions: read-out: Ratio CC50/IC50
[3] = Cytotoxicity in BALB/c mouse Splenocyte assessed as reduction in cell viability incubated for 48 hrs by MTT assay; type: toxicity, cell-based; conditions: splenocytes
[4] = Selectivity index, ratio of CC50 for cytotoxicity in BALB/c mouse splenocytes to IC50 for immunosuppressive activity in BALB/c mouse splenocytes assessed as reduction in LPS-induced mouse B-lymphocytes proliferation; type: toxicity, cell-based; conditions: read-out: Ratio CC50/IC50

Row | SMILES | IC50 [1] | IC50 (B-cell line; read-out: IC50) | selectivity ratio [2] | CC50 at 48 h [3] | selectivity ratio [4] | IC50 (B-cell line)
1 | CC1=C(O)C(=O)C[C@@H]2[C@@]3(C)CC[C@](C)(C(=O)O)C[C@@H]3CC[C@]12C | 3.41 µM | 3.05 µM | 1.9 | 6.46 µM | 2.1 | –
2 | C[C@@H]1C(=O)CC[C@@H]2[C@@]3(C)CC[C@](C)([C@@H](O)CO)C[C@@H]3CC[C@]21C | 23.9 µM | 10.2 µM | 1 | 24.2 µM | 2.4 | –
3 | CC1=CC(=O)C[C@@H]2[C@@]3(C)CC[C@](C)(O)C[C@@H]3CC[C@@]12C | 3.11 µM | 2.24 µM | 4.2 | 13.2 µM | 5.9 | –
4 | C/C=C/C[C@@H](C)[C@@H](O)[C@H]1C(=O)N[C@@H](CC)C(=O)N(C)CC(=O)N(C)[C@@H](CC(C)C)C(=O)N[C@@H](C(C)C)C(=O)N(C)[C@@H](CC(C)C)C(=O)N[C@@H](C)C(=O)N[C@H](C)C(=O)N(C)[C@@H](CC(C)C)C(=O)N(C)[C@@H](CC(C)C)C(=O)N(C)[C@@H](C(C)C)C(=O)N1C [CYCLOSPORINE] | – | – | – | – | – | 0.74 µM
